AC50 data for eight compounds are collected here from ChEMBL document CHEMBL5291721, “A preclinical secondary pharmacology resource illuminates target-adverse drug reaction associations of marketed drugs” (Nat Commun, 2023).

For assay [1], the target named is T1, Alpha-2C adrenergic receptor (Homo sapiens, UniProt P18825).
T1 sequence (P18825 whole entry): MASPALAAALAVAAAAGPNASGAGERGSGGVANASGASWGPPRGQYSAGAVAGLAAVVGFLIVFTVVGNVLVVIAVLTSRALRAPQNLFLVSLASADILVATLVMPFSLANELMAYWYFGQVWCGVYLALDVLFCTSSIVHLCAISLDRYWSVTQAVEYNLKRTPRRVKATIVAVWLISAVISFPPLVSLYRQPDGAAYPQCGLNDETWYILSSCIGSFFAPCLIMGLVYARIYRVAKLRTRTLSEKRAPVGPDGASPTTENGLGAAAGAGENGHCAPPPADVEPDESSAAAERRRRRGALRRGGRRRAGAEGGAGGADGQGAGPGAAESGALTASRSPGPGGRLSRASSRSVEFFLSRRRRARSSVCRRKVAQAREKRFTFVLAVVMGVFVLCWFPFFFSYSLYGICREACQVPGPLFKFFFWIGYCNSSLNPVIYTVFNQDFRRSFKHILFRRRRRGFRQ
The class given is functional.

The target in assay [2] is 5-hydroxytryptamine receptor 2B (Homo sapiens, UniProt P41595). Type of assay: functional, cell-based.
Sequence of 5-hydroxytryptamine receptor 2B (P41595 whole entry): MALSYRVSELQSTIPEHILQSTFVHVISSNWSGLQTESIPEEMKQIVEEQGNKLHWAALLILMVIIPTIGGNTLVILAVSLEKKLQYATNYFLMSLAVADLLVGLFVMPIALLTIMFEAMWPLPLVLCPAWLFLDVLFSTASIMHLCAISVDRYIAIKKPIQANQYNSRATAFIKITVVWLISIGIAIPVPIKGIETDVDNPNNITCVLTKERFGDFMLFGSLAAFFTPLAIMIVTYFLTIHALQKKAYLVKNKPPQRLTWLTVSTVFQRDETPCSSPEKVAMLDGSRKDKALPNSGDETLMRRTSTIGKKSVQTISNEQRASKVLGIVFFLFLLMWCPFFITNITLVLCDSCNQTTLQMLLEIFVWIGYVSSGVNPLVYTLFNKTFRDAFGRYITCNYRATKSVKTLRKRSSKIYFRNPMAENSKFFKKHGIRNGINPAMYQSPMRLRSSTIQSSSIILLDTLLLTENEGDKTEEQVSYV
The target of assay [3] is T2, Thromboxane A2 receptor (Homo sapiens, UniProt P21731).
T2 sequence (P21731 whole entry): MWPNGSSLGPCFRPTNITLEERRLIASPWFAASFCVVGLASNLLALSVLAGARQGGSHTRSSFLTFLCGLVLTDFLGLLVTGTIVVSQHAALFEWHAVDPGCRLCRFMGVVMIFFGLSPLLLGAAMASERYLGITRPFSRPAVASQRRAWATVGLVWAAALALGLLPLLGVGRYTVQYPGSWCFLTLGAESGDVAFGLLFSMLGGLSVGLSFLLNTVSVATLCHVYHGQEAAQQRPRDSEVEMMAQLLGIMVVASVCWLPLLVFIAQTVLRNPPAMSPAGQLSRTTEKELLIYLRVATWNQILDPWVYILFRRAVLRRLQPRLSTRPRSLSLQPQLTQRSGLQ

Assay [4] deals with Histamine H2 receptor (Homo sapiens, UniProt P25021). Type of assay: functional, cell-based.
Sequence of Histamine H2 receptor (P25021 whole entry): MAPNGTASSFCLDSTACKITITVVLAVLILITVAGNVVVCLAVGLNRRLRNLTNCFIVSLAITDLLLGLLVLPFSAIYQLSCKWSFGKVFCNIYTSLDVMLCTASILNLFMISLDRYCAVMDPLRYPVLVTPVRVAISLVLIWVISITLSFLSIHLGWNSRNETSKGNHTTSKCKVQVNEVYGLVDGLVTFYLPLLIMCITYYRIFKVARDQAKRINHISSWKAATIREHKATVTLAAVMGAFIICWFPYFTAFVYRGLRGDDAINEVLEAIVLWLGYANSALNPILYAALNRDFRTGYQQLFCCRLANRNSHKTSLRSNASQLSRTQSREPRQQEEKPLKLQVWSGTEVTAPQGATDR
Assay [5] concerns the target T3, Cannabinoid receptor 1 (Homo sapiens, UniProt P21554). The class given is functional, cell-based.
Assay [6] concerns the target Kappa-type opioid receptor (Homo sapiens, UniProt P41145).
In assay [7] the target is T3, Cannabinoid receptor 1. Type of assay: functional, cell-based. The source holds these as a separate data set.
Assay [8] addresses 3',5'-cyclic-AMP phosphodiesterase 4D (Homo sapiens, UniProt Q08499). The class given is functional.
The target of assay [9] is Gamma-aminobutyric acid receptor subunit alpha-1 (Rattus norvegicus, UniProt P62813).
Sequence of Gamma-aminobutyric acid receptor subunit alpha-1 (P62813 whole entry): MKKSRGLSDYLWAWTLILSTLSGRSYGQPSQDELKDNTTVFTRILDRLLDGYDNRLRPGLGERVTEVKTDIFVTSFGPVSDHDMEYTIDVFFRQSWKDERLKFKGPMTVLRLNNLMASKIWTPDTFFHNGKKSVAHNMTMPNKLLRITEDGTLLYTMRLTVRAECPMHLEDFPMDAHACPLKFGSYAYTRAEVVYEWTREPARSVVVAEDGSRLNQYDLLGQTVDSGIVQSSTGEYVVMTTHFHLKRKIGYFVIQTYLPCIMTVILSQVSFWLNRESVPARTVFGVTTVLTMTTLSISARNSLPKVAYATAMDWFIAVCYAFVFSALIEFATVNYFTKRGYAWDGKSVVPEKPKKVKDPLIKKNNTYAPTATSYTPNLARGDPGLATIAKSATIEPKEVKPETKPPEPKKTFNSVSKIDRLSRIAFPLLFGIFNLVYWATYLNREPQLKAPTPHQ
Assay [10] addresses T4, 5-hydroxytryptamine receptor 3A (Homo sapiens, UniProt P46098).
T4 sequence (P46098 whole entry): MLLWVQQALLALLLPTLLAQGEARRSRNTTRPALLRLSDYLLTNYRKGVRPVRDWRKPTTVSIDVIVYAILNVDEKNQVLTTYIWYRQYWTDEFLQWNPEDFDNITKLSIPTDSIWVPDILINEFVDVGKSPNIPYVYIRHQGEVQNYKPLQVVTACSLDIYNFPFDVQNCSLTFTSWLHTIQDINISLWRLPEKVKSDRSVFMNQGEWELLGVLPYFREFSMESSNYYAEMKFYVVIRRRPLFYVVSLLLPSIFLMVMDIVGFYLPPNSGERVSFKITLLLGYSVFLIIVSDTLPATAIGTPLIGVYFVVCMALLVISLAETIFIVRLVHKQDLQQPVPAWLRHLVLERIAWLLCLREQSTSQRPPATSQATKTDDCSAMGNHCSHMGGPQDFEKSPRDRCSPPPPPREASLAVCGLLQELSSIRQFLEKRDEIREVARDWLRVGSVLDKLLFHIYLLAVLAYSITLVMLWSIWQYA
Type of assay: functional.

The target of assay [11] is Delta-type opioid receptor (Homo sapiens, UniProt P41143).
Sequence of Delta-type opioid receptor (P41143 whole entry): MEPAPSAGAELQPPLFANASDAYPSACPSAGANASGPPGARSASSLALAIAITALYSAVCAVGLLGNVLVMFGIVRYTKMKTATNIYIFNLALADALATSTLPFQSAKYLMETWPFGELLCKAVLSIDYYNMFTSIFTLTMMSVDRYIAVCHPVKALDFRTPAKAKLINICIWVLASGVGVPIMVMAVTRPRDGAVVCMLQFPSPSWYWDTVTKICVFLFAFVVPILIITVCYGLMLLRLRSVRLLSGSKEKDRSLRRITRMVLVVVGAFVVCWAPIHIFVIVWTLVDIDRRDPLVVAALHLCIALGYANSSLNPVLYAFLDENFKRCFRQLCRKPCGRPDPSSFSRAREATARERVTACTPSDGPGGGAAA
Assay [12] addresses T5, Alpha-1A adrenergic receptor (Homo sapiens, UniProt P35348).
T5 sequence (P35348 whole entry): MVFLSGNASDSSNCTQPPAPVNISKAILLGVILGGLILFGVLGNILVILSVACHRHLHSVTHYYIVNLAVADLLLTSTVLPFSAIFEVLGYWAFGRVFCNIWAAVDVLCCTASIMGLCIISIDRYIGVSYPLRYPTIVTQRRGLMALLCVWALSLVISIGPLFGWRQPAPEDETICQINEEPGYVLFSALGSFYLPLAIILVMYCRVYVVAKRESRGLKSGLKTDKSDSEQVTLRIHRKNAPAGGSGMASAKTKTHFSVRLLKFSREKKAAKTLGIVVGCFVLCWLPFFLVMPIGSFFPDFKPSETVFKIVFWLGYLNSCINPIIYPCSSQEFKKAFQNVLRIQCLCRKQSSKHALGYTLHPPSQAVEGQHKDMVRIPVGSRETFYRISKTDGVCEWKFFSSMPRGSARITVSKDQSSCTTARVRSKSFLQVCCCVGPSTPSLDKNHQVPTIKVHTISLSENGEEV
Type of assay: functional, cell-based.

The target of assay [13] is T6, Alpha-2A adrenergic receptor (Homo sapiens, UniProt P08913).
T6 sequence (P08913 whole entry): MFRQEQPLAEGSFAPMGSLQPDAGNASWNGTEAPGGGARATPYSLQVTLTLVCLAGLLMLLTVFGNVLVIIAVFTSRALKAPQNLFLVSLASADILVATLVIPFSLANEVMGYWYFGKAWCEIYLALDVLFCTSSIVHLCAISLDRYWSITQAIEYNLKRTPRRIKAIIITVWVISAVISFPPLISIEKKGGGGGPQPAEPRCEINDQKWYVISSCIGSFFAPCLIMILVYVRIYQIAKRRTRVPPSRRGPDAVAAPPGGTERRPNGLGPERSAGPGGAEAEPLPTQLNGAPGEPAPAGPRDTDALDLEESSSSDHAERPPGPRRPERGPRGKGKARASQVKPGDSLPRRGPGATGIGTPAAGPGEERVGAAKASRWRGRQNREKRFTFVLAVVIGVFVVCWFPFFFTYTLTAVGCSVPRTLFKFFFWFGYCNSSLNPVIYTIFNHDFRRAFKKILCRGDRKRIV
Type of assay: functional, cell-based.

Assay [14] addresses Beta-1 adrenergic receptor (Homo sapiens, UniProt P08588). Type of assay: functional.

Bounds are passed on as bounds.
Further: assay procedure not described here.

Sequence of Kappa-type opioid receptor (P41145 whole entry): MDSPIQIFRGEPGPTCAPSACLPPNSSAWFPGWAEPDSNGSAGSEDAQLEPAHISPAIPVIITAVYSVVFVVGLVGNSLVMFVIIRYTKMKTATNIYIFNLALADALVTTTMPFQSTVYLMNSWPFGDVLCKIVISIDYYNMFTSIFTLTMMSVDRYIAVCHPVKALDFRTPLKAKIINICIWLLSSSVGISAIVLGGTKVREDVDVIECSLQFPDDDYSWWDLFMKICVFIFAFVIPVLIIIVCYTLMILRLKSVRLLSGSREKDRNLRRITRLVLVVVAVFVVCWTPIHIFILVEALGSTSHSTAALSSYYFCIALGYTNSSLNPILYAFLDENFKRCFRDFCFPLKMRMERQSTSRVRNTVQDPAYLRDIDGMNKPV
T3 sequence (P21554 whole entry): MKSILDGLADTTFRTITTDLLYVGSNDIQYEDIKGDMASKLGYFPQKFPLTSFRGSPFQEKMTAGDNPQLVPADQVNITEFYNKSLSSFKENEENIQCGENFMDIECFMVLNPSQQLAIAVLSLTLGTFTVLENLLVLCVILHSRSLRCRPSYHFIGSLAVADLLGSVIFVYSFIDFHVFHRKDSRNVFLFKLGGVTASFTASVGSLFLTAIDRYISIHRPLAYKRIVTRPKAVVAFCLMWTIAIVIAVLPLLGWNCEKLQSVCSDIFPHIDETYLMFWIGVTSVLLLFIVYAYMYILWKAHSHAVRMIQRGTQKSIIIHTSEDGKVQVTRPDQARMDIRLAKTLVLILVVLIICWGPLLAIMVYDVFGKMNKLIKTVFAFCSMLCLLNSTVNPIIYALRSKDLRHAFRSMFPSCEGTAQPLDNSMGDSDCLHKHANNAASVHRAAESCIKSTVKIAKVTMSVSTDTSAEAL
Sequence of Beta-1 adrenergic receptor (P08588 whole entry): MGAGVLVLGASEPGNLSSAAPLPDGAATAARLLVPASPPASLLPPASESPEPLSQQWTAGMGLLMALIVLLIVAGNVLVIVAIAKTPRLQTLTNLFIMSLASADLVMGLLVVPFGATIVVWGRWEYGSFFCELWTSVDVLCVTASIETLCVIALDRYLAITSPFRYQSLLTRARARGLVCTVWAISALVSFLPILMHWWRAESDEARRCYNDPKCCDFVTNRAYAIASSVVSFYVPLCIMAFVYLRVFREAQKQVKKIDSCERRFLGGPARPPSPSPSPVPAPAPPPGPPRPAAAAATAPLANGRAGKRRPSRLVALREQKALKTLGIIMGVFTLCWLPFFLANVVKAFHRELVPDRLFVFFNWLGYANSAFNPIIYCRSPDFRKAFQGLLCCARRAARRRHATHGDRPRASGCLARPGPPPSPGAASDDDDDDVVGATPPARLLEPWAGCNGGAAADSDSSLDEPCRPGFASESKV
Sequence of 3',5'-cyclic-AMP phosphodiesterase 4D (Q08499 whole entry): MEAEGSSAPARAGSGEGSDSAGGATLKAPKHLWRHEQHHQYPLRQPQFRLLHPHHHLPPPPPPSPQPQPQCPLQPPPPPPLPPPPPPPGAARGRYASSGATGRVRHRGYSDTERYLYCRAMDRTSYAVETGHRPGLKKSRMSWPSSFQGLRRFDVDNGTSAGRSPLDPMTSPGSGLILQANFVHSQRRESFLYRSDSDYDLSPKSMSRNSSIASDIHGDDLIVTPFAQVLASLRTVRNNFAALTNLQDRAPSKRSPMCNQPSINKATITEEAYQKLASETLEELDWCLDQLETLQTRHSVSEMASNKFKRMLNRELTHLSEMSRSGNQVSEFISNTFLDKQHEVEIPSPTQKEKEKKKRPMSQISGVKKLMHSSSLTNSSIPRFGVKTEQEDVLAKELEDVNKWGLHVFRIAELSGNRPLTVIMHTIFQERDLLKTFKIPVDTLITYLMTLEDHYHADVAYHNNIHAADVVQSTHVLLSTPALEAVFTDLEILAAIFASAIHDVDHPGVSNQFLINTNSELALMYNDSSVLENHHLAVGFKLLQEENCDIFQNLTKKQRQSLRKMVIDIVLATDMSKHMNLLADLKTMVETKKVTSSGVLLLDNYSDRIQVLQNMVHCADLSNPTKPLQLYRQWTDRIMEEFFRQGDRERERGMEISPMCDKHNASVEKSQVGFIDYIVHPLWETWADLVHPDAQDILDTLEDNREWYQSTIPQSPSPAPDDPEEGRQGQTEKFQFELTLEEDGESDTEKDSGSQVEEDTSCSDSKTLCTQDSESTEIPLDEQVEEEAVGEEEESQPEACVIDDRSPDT

On to `Cc1c(OCC(F)(F)F)ccnc1C[S+]([O-])c1nc2ccccc2[nH]1` (stereo not given) [LANSOPRAZOLE], for which the AC50 in assay [1] was more than 10 µM; in [2], more than 10 µM; in assay [3], 3.46 µM; in [4], more than 10 µM; in [5], more than 30 µM; in [6], 4.88 µM. The AC50 in assay [7] is more than 30 µM; in [8], more than 10 µM; in assay [9] it was more than 10 µM; in [10], 2.3 µM; in [11], 8.3 µM; in assay [12], more than 30 µM. Besides, the concentration at half-maximal activity (AC50) in [13] and in assay [14] was more than 10 µM throughout.
Regarding `Cc1nnc2n1-c1ccc(Cl)cc1C(c1ccccc1Cl)=NC2` [TRIAZOLAM], the AC50 in assay [1] was more than 10 µM; in [2], more than 10 µM; in assay [3], more than 30 µM; in assay [4], more than 10 µM; in assay [5], more than 30 µM; in assay [7], more than 30 µM. The concentration at half-maximal activity (AC50) is 33 µM in [8]; more than 10 µM in [9]; more than 30 µM in assay [10]; more than 30 µM in [11]; more than 30 µM in assay [12]; more than 10 µM in assay [13]. The same compound came in with an AC50 in [14] of more than 10 µM.
For the compound `C#C[C@]1(O)CC[C@H]2[C@@H]3[C@H](C)CC4=C(CCC(=O)C4)[C@H]3CC[C@@]21C` [TIBOLONE], the AC50 was more than 30 µM in assay [1]; more than 30 µM in assay [2]; more than 30 µM in assay [3]; more than 30 µM in assay [4]; more than 30 µM in [5]; 19 µM in [6]. Also, the concentration at half-maximal activity (AC50) in [7] was more than 30 µM; in assay [8] it was 6.9 µM; in [9], more than 30 µM; in [10], more than 30 µM; in assay [11], more than 30 µM; in assay [12], more than 30 µM. Moreover, the AC50 in [13] and in assay [14] was more than 30 µM throughout.
Take `CC(C)(C)NCC(O)COc1cccc2c1CCC(=O)N2` (stereo not given) [CARTEOLOL]: the AC50 was more than 10 µM in assay [1]; more than 10 µM in [2]; more than 10 µM in assay [3]; more than 10 µM in assay [4]; more than 30 µM in assay [5]; 11.6 µM in [6]. The concentration at half-maximal activity (AC50) in assay [7] was more than 30 µM; in [8], more than 30 µM; in assay [9] it was more than 10 µM; in assay [10], more than 30 µM; in [11] it was more than 30 µM; in assay [12], more than 30 µM. In assay [13], this compound yielded an AC50 of more than 10 µM.
For `COc1cccc(C2(O)CCCCC2CN(C)C)c1` (stereo not given) [TRAMADOL], the half-maximal activity concentration (AC50) in assay [1] is more than 10 µM; in [2], more than 10 µM; in assay [3], more than 30 µM; in [4], more than 10 µM; in assay [5], more than 30 µM; in assay [6], more than 10 µM. The AC50 is more than 30 µM in assay [7]; more than 30 µM in assay [8]; more than 10 µM in assay [9]; more than 30 µM in [10]; more than 30 µM in assay [11]; more than 30 µM in assay [12]. Further, the concentration at half-maximal activity (AC50) in assay [13] and in assay [14] was more than 10 µM each time.
In the case of `C[C@@H]1O[C@@H](O[C@@H]2C=C3CC[C@@H]4[C@H](CC[C@]5(C)[C@@H](c6ccc(=O)oc6)CC[C@]45O)[C@@]3(C)CC2)[C@H](O)[C@H](O)[C@H]1O` [PROSCILLARIDIN], the concentration at half-maximal activity (AC50) in assay [1], in [2], in assay [3], in assay [4], in [5] and in assay [6] was more than 30 µM each time. Also, the concentration at half-maximal activity (AC50) in [7], in assay [8], in assay [9], in [10], in assay [11] and in [12] was more than 30 µM throughout. Moreover, the AC50 in assay [13] and in assay [14] was more than 30 µM throughout.
Regarding `NC(=O)CN1CC(O)CC1=O` (stereo not given) [OXIRACETAM], the AC50 in [1], in [2], in assay [3], in assay [4], in assay [5] and in assay [6] was more than 30 µM throughout. The AC50 in assay [7], in assay [8], in [9], in [10], in [11] and in assay [12] was more than 30 µM throughout. Also, the AC50 in [13] and in assay [14] was more than 30 µM in each case.
Take `Fc1ccc(C(c2ccccc2)(c2ccccc2F)n2ccnc2)cc1` (stereo not given) [FLUTRIMAZOLE]: the AC50 is more than 30 µM in assay [1]; more than 30 µM in assay [2]; 30 µM in assay [3]; more than 30 µM in assay [4]; more than 30 µM in [5]; 0.93 µM in assay [6]. Moreover, the AC50 in assay [7], in assay [8], in assay [9], in [10], in [11] and in [12] was more than 30 µM in each case. In addition, the concentration at half-maximal activity (AC50) in assay [13] and in [14] was more than 30 µM each time.
